This is an account of results in article PMC6132687, “Stem cells are the most sensitive screening tool to identify toxicity of GATA4-targeted novel small-molecule compounds” (Archives of Toxicology, 2018).

Series [1] has as its system GATA4–NKX2-5 transcriptional synergy. Kind of series: Luciferase reporter assay of GATA4–NKX2-5 synergistic gene activation in COS-1 cells. The series is classed as cell-based, African green monkey. To be noted: 24 h treatment, normalized to DMSO. The method, then: COS-1 cells were used to investigate the compound effects on GATA4–NKX2-5 synergistic gene activation using a luciferase reporter assay (Kinnunen et al. [2015]). Toxicity profiling was carried out in eight cell types: the H9c2 myoblast cell line, NRVCs, CFs, mESCs, MEFs, mESC derivatives from day 5 embryoid bodies (D5EBs), hiPSCs and hiPSC-CMs. All cell cultures were maintained at 37 °C in a humidified atmosphere of 5% carbon dioxide (CO2) and the regular growth medium was used for compound exposures. Cell culture methods and cardiomyocyte differentiation from human pluripotent stem cells are described in Supplementary Information.
The empty expression plasmid MT2 (pMT2) and mouse Gata4 expressing pMT2-Gata4 plasmids were gifts from D. B. Wilson (Department of Pediatrics, St. Louis Children’s Hospital) (Arceci et al. [1993]). The luciferase reporter plasmid pGL3-3xHA containing three Nkx2-5 high-affinity binding sites has been described previously (Kinnunen et al. [2015]). To create mouse Nkx2-5 expressing pMT2-Nkx2-5, the cDNA was cloned from pFLCI-Nkx2-5 (clone D330001C20, Imagenes), which was a kind gift from R. Kerkelä (University of Oulu, Finland), with primers containing the EcoRI restriction site (forward: 5′-[…]-3′ and reverse 5′-[…]-3′) and ligated to pMT2 EcoRI site. The correct clone was identified by digestion with specific restriction enzymes and the sequence was verified by DNA sequencing (DNA Sequencing and Genomics Laboratory, Institute of Biotechnology, University of Helsinki, Finland).
COS-1 cells grown on 96-well plates were transfected with the luciferase reporter plasmid pGL3-3xHA (100 ng/well) and equal amounts of expression vectors pMT2-Gata4 and pMT2-Nkx2-5 (total of 50 ng/well) using Fugene 6 (Promega) at a reagent:DNA ratio of 3:1. Cells transfected with either pMT2, pMT2-Gata4 or pMT2-Nkx2-5 were used to confirm synergistic transactivation of the reporter gene in all experiments. After 6 h of transfection, the cells were treated with compounds or vehicle (0.1% dimethyl sulfoxide, DMSO) and the luminescence was measured 24 h later using Neolite Reporter Gene Assay System (PerkinElmer, Turku, Finland) according to manufacturer’s instructions and Victor2 plate reader (PerkinElmer, Turku, Finland). Each compound was tested in three technical replicates in at least two independent experiments.
A luciferase reporter assay with an artificial promoter containing three high-affinity binding sites for NKX2-5 was used to evaluate the effects of the compounds on GATA4–NKX2-5 transcriptional synergy (Kinnunen et al. [2015]). We have previously shown that while GATA4 alone induces only minimal activation of this promoter, it strongly potentiates NKX2-5-mediated transactivation (Kinnunen et al. [2015]; Välimäki et al. [2017]).
For orientation: A reporter such as luciferase makes a cellular process visible.

For the next series, the system named is mESCs. Put plainly: MTT assay in mESCs. In kind it is cell-based, mouse. Particulars: 24 h; for reduction in cell viability: 30 µM. The method, then:
The cells were exposed to the test compounds for 24 h and cytotoxicity was quantified with MTT and LDH assays as described previously (Talman et al. [2011]). For the determination of cell membrane integrity, 50 µl of medium from each well was transferred onto a new 96-well plate followed by addition of 50 µl of substrate solution containing 1.3 mM β-nicotinamide adenine dinucleotide, 660 µM iodonitrotetrazolium, 54 mM L(+)-lactic acid, 280 µM phenazine methosulphate and 0.2 M Tris–HCl (pH 8.0). After a 30-min incubation, the reaction was stopped by adding 50 µl of 1 M acetic acid to each well and absorbance was measured at 490 nm using Victor2 plate reader (PerkinElmer, Turku, Finland). Spontaneous LDH release was measured from untreated cells, maximal LDH release from cells lysed with 0.9% Triton X-100 and background absorbance was measured from wells without cells. After background extraction, cytotoxicity was calculated as follows: cytotoxicity (%) = [(sample − spontaneous LDH release)/(maximal LDH release − spontaneous LDH release)] × 100. For quantification of metabolic activity, 3-(4,5-dimethylthiazol-2-yl)-2,5-diphenyltetrazolium bromide (MTT) was added to the cells at a final concentration of 0.5 mg/ml followed by 2 h incubation in cell culture conditions. The medium was then aspirated and formazan crystals were solubilized in DMSO. Absorbance was measured at 550 nm and absorbance at 650 nm was subtracted as background.
Mouse embryonic stem cells (mESCs), embryoid bodies (EBs), and primary mouse embryonic fibroblasts (MEFs) were used for toxicity experiments. E14 mESCs were cultured in feeder-free conditions on plates coated with 0.1% gelatin in DMEM with 15% FBS, GlutaMax, MEM non-essential amino acids, 2-mercaptoethanol, and leukemia inhibitory factor (LIF). For toxicity assays, the cells were dissociated with TrypLe and plated at 5,000 cells/well in gelatin-coated 96-well plates 24 hours prior to compound exposures. […]
1640 without glucose with B-27 supplement in order to purify cardiomyocytes. From day 15 onwards the cells were maintained in RPMI 1640 supplemented with B-27 (RB+ins). Beating hiPSC-CMs were dissociated between days 15 and 22 by incubating them in cell dissociation solution containing 40% enzyme-free cell dissociation buffer, 40% RPMI 1640 and 20% trypsin-EDTA (final trypsin concentration 0.01%) for 7–8 min, whereafter the cells were collected and trypsin was inactivated in RB+ins supplemented with 10% FBS. After centrifugation the cells were suspended in RB+ins with 10% FBS containing 10 µM ROCK inhibitor and seeded at 15,000 cells/well (cytotoxicity assays) or 20,000 cells/well (high content analysis) in gelatin-coated 96-well plates. The cells were let to attach for 2 days at 37 °C in standard conditions, whereafter the compounds were added in RB+ins. In general, the differentiation yielded an almost pure (>95%) cardiomyocyte culture.
Syntheses and characterization of compounds
Materials and general procedures. All reagents were acquired from Sigma-Aldrich (Schnelldorf, Germany) and Enamine (Kiev, Ukraine), and were used without further purification. All reactions in anhydrous solvents were conducted in oven-dried glassware under anhydrous argon. Thin-layer chromatography (TLC) was performed using Silica Gel 60 F254 (Merck) and Silica Gel 60 NH2 F254s aluminium sheets (Merck), visualized by UV illumination and stained with ninhydrin in EtOH (1.5% w/v). […] The 1H and 13C NMR spectra were recorded on a Varian

Take `CCN(CC)c1ccc(NC(=O)c2c(-c3ccccc3)noc2C)cc1` [3i-1000]: the “effect on GATA4- and NKX2-5-induced gene activation (luciferase reporter activity)” value (shortened to “effect”) in series [1] was “inhibitory effect”. Besides, in the series on mESCs, the “reduction in cell viability” value is listed as 56%.
For `CCN(CC)c1ccc(NC(=O)c2c(C)noc2-c2cc(C)on2)cc1` [3i-1047], the “effect” value in series [1] is given as “only a weak effect”. The “reduction in cell viability” value in the series with mESCs is 38–45%.
Regarding `CCC(=O)N(Cc1ccc(N(CC)CC)cc1)c1c(-c2ccccc2)noc1C` [3i-1120], in series [1], the “effect” value was “inhibitory effect”. For the same molecule, the “sensitivity of cell type to compound (viability)” value in the series on mESCs is “sensitive”.
As to `CCN(CC)c1ccc(NC(=O)c2cc(C)oc2-c2ccccc2)cc1` [3i-1148], the “effect” value in series [1] is on record as “inhibitory effect”. For the same molecule, the “sensitivity of cell type to compound (viability)” value with mESCs was “sensitive”.
The like results for `COc1ccc(-c2cc(N)nn2C(=O)c2c(-c3ccccc3)noc2C)cc1` [3i-1229] were, in that order, “only a weak effect” and “sensitive”.
